Columns and labels:
CDK1/Cyclin B1 = CDK1/Cyclin B1 (Homo sapiens, UniProt P06493); assay: CDK1/Cyclin B1 Biochemical Assay (TR-FRET), 0.015 mM ATP; details: 0.15 μM Rb (Ser780)-biotin substrate, pH7.0, 60 min preincubation, 120 min reaction, room temperature
Description: (§1) CDK2/Cyclin E1 and CDK1/Cyclin B1 Biochemical Assays
(§2) Compounds disclosed herein were tested for inhibition of CDK2/Cyclin E1 or CDK1/Cyclin B1 kinase in an assay based on the time-resolved fluorescence-resonance energy transfer (TR-FRET) methodology. The assay was carried out in 384-well low volume black plates in a reaction mixture containing CDK2/Cyclin E1 or CDK1/Cyclin B1, 0.060 mM ATP for CDK2/Cyclin E1 or 0.015 mM ATP for CDK1/Cyclin B1, 0.15 μM Rb (Ser780)-biotin substrate and 0-10 μM compound in buffer containing 50 mM HEPES pH7.0, 0.02% NaN3, 0.01% BSA, 0.1 mM Orthovanadate, 50 mM MgCl2, 1 mM DTT and 0.005% Tween-20. The kinase was incubated with compound for 60 minutes at room temperature and the reaction was initiated by the addition of ATP and Rb (Ser780)-biotin substrate. After reaction at room temperature for 120 minutes, an equal volume of stop/detection solution was added according to the manufacture's instruction (Cisbio Bioassays). The stop/detection solution contained Streptavidin-XL665 and Anti-pRb (Ser780) mAb-Eu Cryptate in Detection buffer (Cisbio Bioassays). Plates were incubated at room temperature for 60 minutes, and the TR-FRET signals (ex337 nm, em665 nm/620 nm) were recorded on a PHERAstar FSX plate reader (BMG Labtech). The inhibition percentage of CDK2/Cyclin E1 or CDK1/Cyclin B1 kinase activity in presence of increasing concentrations of compounds was calculated based on the ratio of fluorescence at 665 nm to that at 620 nm. The IC50 for each compound was derived from fitting the data to the four-parameter logistic equation by Dotmatics.

CDK2/Cyclin E1 = CDK2/Cyclin E1 (Homo sapiens, UniProt P24941); assay: CDK2/Cyclin E1 Biochemical Assay (TR-FRET), 0.060 mM ATP; details: 0.15 μM Rb (Ser780)-biotin substrate, pH7.0, 60 min preincubation, 120 min reaction, room temperature
Description: as §1, §2

Sequence of CDK1/Cyclin B1 (P06493 whole entry): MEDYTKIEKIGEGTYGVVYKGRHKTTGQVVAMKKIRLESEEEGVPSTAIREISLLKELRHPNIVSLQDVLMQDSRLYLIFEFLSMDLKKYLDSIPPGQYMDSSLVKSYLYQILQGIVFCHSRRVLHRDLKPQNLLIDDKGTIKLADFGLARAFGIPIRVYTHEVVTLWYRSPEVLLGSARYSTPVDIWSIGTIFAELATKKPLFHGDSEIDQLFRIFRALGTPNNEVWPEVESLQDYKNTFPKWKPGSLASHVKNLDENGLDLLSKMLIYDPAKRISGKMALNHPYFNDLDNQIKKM
Sequence of CDK1/Cyclin B1 (P14635 whole entry partner): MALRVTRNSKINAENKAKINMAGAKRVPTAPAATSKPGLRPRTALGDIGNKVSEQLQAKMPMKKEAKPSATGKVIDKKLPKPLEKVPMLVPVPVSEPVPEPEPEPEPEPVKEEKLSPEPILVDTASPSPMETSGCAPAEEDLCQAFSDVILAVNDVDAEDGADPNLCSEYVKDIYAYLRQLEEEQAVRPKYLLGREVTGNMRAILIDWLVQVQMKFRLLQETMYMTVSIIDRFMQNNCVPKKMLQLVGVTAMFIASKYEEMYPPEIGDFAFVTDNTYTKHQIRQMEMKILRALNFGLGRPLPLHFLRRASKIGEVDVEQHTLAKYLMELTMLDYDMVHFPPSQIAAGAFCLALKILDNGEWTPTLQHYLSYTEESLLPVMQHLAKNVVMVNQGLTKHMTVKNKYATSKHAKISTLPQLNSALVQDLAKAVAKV

Row | Compound | IC50 (CDK1/Cyclin B1) [nM] | IC50 (CDK2/Cyclin E1) [nM]
1 | COCC(C)(C)NC(=O)O[C@H]1CC[C@@H](c2cc(Nc3ccc4c(c3F)CS(=O)(=O)N4)n[nH]2)C1 (relative stereo) [Example 376, cis-3-(3-((4-fluoro-2,2-dioxido-1,3-dihydrobenzo[c]isothiazol-5-yl)amino)-1H-pyrazol-5-yl)cyclopentyl(1-methoxy-2-methylpropan-2-yl)carbamate] | 31 | 2.1
2 | CC1(NC(=O)O[C@H]2CC[C@@H](c3cc(Nc4ccc5c(c4F)CS(=O)(=O)N5CCO)n[nH]3)C2)CC1 (relative stereo) [Example 274, cis-3-(3-((4-fluoro-1-(2-hydroxyethyl)-2,2-dioxido-1,3-dihydrobenzo[c]isothiazol-5-yl)amino)-1H-pyrazol-5-yl)cyclopentyl(1-methylcyclopropyl)carbamate] | 22 | 1
3 | CN1Cc2c(ccc(Nc3cc([C@@H]4CC[C@H](OC(=O)NC5CCC(O)CC5)C4)[nH]n3)c2F)S1(=O)=O (single isomer, unassigned) [Example 167, cis-3-(3-((4-fluoro-2-methyl-1,1-dioxido-2,3-dihydrobenzo[d]isothiazol-5-yl)amino)-1H-pyrazol-5-yl)cyclopentyl(4-hydroxycyclohexyl)carbamate] | 514 | 9.2
4 | C[C@@H](CO)NC(=O)O[C@H]1CC[C@@H](c2cc(Nc3ccc4c(c3)CS(=O)(=O)N4C)n[nH]2)C1 (relative stereo) [Example 324, cis-3-(3-((1-methyl-2,2-dioxido-1,3-dihydrobenzo[c]isothiazol-5-yl)amino)-1H-pyrazol-5-yl)cyclopentyl((S)-1-hydroxypropan-2-yl)carbamate] | 83 | 3.3
5 | O=C(O[C@H]1CC[C@@H](c2cc(Nc3ccc4c(c3)CNS4(=O)=O)n[nH]2)C1)N1CCCC1 (relative stereo) [Example 174, cis-3-(3-((1,1-dioxido-2,3-dihydrobenzo[d]isothiazol-5-yl)amino)-1H-pyrazol-5-yl)cyclopentyl pyrrolidine-1-carboxylate] | 136 | 6.5
6 | CC(C)NC(=O)O[C@@H]1CC[C@H](c2cc(Nc3ccc4c(c3)N(C(=O)OC(C)(C)C)CS4(=O)=O)n[nH]2)C1 (relative stereo) [Example 319, cis-tert-butyl 5-((5-(3-((isopropylcarbamoyl)oxy)cyclopentyl)-1H-pyrazol-3-yl)amino)benzo[d]thiazole-3 (2H)-carboxylate 1,1-dioxide] | 1750 | 85
7 | CC(C)NC(=O)O[C@H]1CC[C@@H](c2cc(Nc3ccc4c(c3F)CN(C3CCC(=O)N(C)C3)S4(=O)=O)n[nH]2)C1 (relative stereo) [Example 83, cis-3-(3-((4-fluoro-2-(1-methyl-6-oxopiperidin-3-yl)-1,1-dioxido-2,3-dihydrobenzo[d]isothiazol-5-yl)amino)-1H-pyrazol-5-yl)cyclopentyl isopropylcarbamate] | 565 | 15
8 | CC(C)NC(=O)O[C@H]1CC[C@@H](c2cc(Nc3ccc4c(c3F)CN(CC3CCNC3=O)S4(=O)=O)n[nH]2)C1 (relative stereo) [Example 110, cis-3-(3-((4-fluoro-1,1-dioxido-2-((2-oxopyrrolidin-3-yl)methyl)-2,3-dihydrobenzo[d]isothiazol-5-yl)amino)-1H-pyrazol-5-yl)cyclopentyl isopropylcarbamate] | 225 | 2.7
9 | CC(C)NC(=O)O[C@H]1CC[C@@H](c2cc(Nc3ccc4c(c3F)CN(C3CN(Cc5ccccc5)C3)S4(=O)=O)n[nH]2)C1 (relative stereo) [Example 92, cis-3-(3-((2-(1-benzylazetidin-3-yl)-4-fluoro-1,1-dioxido-2,3-dihydrobenzo[d]isothiazol-5-yl)amino)-1H-pyrazol-5-yl)cyclopentyl isopropylcarbamate] | 1550 | 36
10 | CC(=O)N1CC(CN2Cc3c(ccc(Nc4cc([C@@H]5CC[C@H](OC(=O)NC(C)C)C5)[nH]n4)c3F)S2(=O)=O)C1 (relative stereo) [Example 107, cis-3-(3-((2-((1-acetylazetidin-3-yl)methyl)-4-fluoro-1,1-dioxido-2,3-dihydrobenzo[d]isothiazol-5-yl)amino)-1H-pyrazol-5-yl)cyclopentyl isopropylcarbamate] | 532 | 9.6
11 | CC(C)NC(=O)O[C@H]1CC[C@@H](c2cc(Nc3ccc4c(c3F)CN(C3CCN(C)C3=O)S4(=O)=O)n[nH]2)C1 (relative stereo) [Example 93, cis-3-(3-((4-fluoro-2-(1-methyl-2-oxopyrrolidin-3-yl)-1,1-dioxido-2,3-dihydrobenzo[d]isothiazol-5-yl)amino)-1H-pyrazol-5-yl)cyclopentyl isopropylcarbamate] | 531 | 6.3
12 | CC(C)NC(=O)O[C@H]1CC[C@@H](c2cc(Nc3ccc4c(c3F)CN(C3CN(C(c5ccccc5)c5ccccc5)C3)S4(=O)=O)n[nH]2)C1 (relative stereo) [Example 94, cis-3-(3-((2-(1-benzhydrylazetidin-3-yl)-4-fluoro-1,1-dioxido-2,3-dihydrobenzo[d]isothiazol-5-yl)amino)-1H-pyrazol-5-yl)cyclopentyl isopropylcarbamate] | > 10000 | 332
13 | [2H]C([2H])([2H])N1c2ccc(Nc3cc([C@@H]4CC[C@H](OC(=O)N[C@@H](C)CC)C4)[nH]n3)c(F)c2CS1(=O)=O (relative stereo) [Example 269, cis-3-(3-((4-fluoro-1-(methyl-d3)-2,2-dioxido-1,3-dihydrobenzo[c]isothiazol-5-yl)amino)-1H-pyrazol-5-yl)cyclopentyl((S)-sec-butyl)carbamate] | 61 | 5.6
14 | CC(C)NC(=O)O[C@H]1CC[C@@H](c2cc(Nc3cc4c(cc3F)N(C)S(=O)(=O)C4)n[nH]2)C1 (relative stereo) [Example 300, cis-3-(3-((6-fluoro-1-methyl-2,2-dioxido-1,3-dihydrobenzo[c]isothiazol-5-yl)amino)-1H-pyrazol-5-yl)cyclopentyl isopropylcarbamate] | 513 | 36

The remaining lines, values ahead:

Row | IC50 (CDK1/Cyclin B1) [nM] | IC50 (CDK2/Cyclin E1) [nM] | Compound
15 | 31 | 1.1 | CC1(NC(=O)O[C@H]2CC[C@@H](c3cc(Nc4ccc5c(c4)CCS(=O)(=O)N5)n[nH]3)C2)CC1 (single isomer, unassigned) [Example 249a, cis-3-(3-((2,2-dioxido-3,4-dihydro-1H-benzo[c][1,2]thiazin-6-yl)amino)-1H-pyrazol-5-yl)cyclopentyl(1-methylcyclopropyl)carbamate]
16 | 186 | 1.1 | CC1(NC(=O)O[C@H]2CC[C@@H](c3cc(Nc4ccc5c(c4F)CNS5(=O)=O)n[nH]3)C2)CCOC1 (single isomer, unassigned) [Example 162b, cis-3-(3-((4-fluoro-1,1-dioxido-2,3-dihydrobenzo[d]isothiazol-5-yl)amino)-1H-pyrazol-5-yl)cyclopentyl(3-methyltetrahydrofuran-3-yl)carbamate]
17 | 7.3 | 1.1 | CC(C)(C)NC(=O)O[C@H]1CC[C@@H](c2cc(Nc3ccc4c(c3)CS(=O)(=O)N4)n[nH]2)C1 [Example 403b]
18 | 154 | 6.9 | O=C(NC1CCCC1)O[C@@H]1CC[C@H](c2cc(Nc3ccc4c(c3F)CS(=O)(=O)N4)n[nH]2)C1 (single isomer, unassigned) [Example 400a]
19 | 181 | 3.1 | CC1(NC(=O)O[C@H]2CC[C@@H](c3cc(Nc4ccc5c(c4Cl)CNS5(=O)=O)n[nH]3)C2)CC1 (single isomer, unassigned) [Example 40b, cis-3-(3-((4-chloro-1,1-dioxido-2,3-dihydrobenzo[d]isothiazol-5-yl)amino)-1H-pyrazol-5-yl)cyclopentyl(1-methylcyclopropyl)carbamate]
20 | 65 | 1.9 | [2H]C([2H])([2H])N1Cc2c(ccc(Nc3cc([C@@H]4CC[C@H](OC(=O)NC5(C)CC5)C4)[nH]n3)c2F)S1(=O)=O (single isomer, unassigned) [Example 132b, cis-3-(3-((4-fluoro-2-(methyl-d3)-1,1-dioxido-2,3-dihydrobenzo[d]isothiazol-5-yl)amino)-1H-pyrazol-5-yl)cyclopentyl(1-methylcyclopropyl)carbamate]
21 | 298 | 2 | O=C(NCCC(F)(F)F)O[C@@H]1CC[C@H](c2cc(Nc3cc4c(cc3F)S(=O)(=O)NC4)n[nH]2)C1 (single isomer, unassigned) [Example 419a]
22 | 74 | 1.1 | CC(C)NC(=O)O[C@@H]1CC[C@H](c2cc(Nc3ccc4c(c3F)CS(=O)(=O)N4)n[nH]2)C1 (single isomer, unassigned) [Example 251a]
